Test results published in PMC12888920, “MMP-9 regulates disulphide isomerase activity of TGM2 to enhance fusion glycoprotein-mediated syncytium formation of respiratory syncytial virus” (Protein & Cell, 2025).
pEC50, pKd: −log10 of the molar value.

What was measured:
[1] = system: RSV A2; experiment: Antiviral activity (FFA) against RSV A2 in HEp-2 cells; assay type: cell-based; conditions: human respiratory syncytial virus; HEp-2, RSV A2, MOI = 0.1, 72 hpi; read-out: EC50
Description: (§1) Figure 1. Antiviral activity of metalloproteinase inhibitors against RSV in vitro. (A) Experimental workflow for RSV A2 infection and compound treatment. (B) High-throughput screening of TargetMol L1100 library (246 host protease inhibitors targeting 10 pathways: MMPs, caspases, proteasomes, apoptosis regulators, cysteine proteases, gamma-secretase, autophagy modulators, serine proteases, DPP-4, and beta-secretase) using concentration gradients (1, 5, 10 µmol/L). HEp-2 cells were pretreated with compounds for 1 hour prior to RSV A2 infection (MOI = 0.1). Plaque formation was quantified at 72 hours post-infection (hpi) and normalized to DMSO controls. […] (G) Target overlap analysis of four MMP-9-targeting inhibitors. (H) Viral titers in supernatants of HEp-2 cells transfected with MMP-specific siRNAs (24 h) followed by RSV A2 infection (MOI = 1, 72 h). mean ± SD, n = 3. The results are representatively shown with three random experiments. The error bars indicate the mean ± SD of three technical replicates (n = 3). Statistical significance was determined by one-way ANOVA with Dunnett’s post hoc test: *P < 0.05, ***P < 0.001; ns, not significant. […]
(§2) 110 overtly cytotoxic) underwent dose -response validation (0.00004 –10 μM) to generate
(§3) 111 EC50 curves (GraphPad Prism 8.0) .
(§4) 112 Evaluation of in vitro antiviral activity
(§5) 113 Compound inhibitor treatments: HEp-2 cells (1.3×10⁴/well) or HBEC (1.8×10⁴/well)
(§6) 114 were pretreated with test compounds for 1 h before RSV A2/B18537 infection
(§7) 115 (MOI=0.1 or 0.3). Viral inhibition was quantified at 72 hpi via FFA. Fixed cells (4%
(§8) 116 PFA) were permeabilized (0.3% Triton X-100), stained with anti-RSV-FITC
(§9) 118 Fluorescent foci were normalized to nuclear counts (ImageJ software) for EC 50
(§10) 119 determination via four-parameter logistic regression (GraphPad Prism 8.0). Data
(§11) 120 represent triplicate experiments. […]

[2] = system: RSV B18537; experiment: Antiviral activity (FFA) against RSV B18537 in HEp-2 cells; assay type: cell-based; conditions: human respiratory syncytial virus; HEp-2, RSV B18537, MOI = 0.1, 72 hpi; read-out: EC50
Description: as §1
(§12) 109 111813, MCE) and 0.1% DMSO vehicle. Primary hits (>50% CPE reduction + not
as §2, §3, §4, §5, §6, §7, §8, §9, §10, §11

[3] = system: RSV A2; experiment: Antiviral activity (FFA) against RSV A2 in primary human bronchial epithelial cells (HBEC); assay type: cell-based; conditions: human respiratory syncytial virus, Epithelial cell; HBEC, RSV A2, MOI = 0.3, 72 hpi; read-out: EC50
Description: as §1, §4, §5, §6, §7, §8, §9, §10, §11

[4] = system: RSV B18537; experiment: Antiviral activity (FFA) against RSV B18537 in HBEC; assay type: cell-based; conditions: human respiratory syncytial virus; HBEC, RSV B18537, MOI = 0.3, 72 hpi; read-out: EC50
Description: as §1, §4, §5, §6, §7, §8, §9, §10, §11

[5] = system: RSV A2; experiment: High-throughput antiviral screening of protease inhibitor library against RSV A2 in HEp-2 cells; assay type: cell-based, Respiratory syncytial virus; conditions: RSV A2, MOI = 0.1, 1, 5, 10 µmol/L, 72 hpi
Description: Figure 1. Antiviral activity of metalloproteinase inhibitors against RSV in vitro. (A) Experimental workflow for RSV A2 infection and compound treatment. (B) High-throughput screening of TargetMol L1100 library (246 host protease inhibitors targeting 10 pathways: MMPs, caspases, proteasomes, apoptosis regulators, cysteine proteases, gamma-secretase, autophagy modulators, serine proteases, DPP-4, and beta-secretase) using concentration gradients (1, 5, 10 µmol/L). HEp-2 cells were pretreated with compounds for 1 hour prior to RSV A2 infection (MOI = 0.1). Plaque formation was quantified at 72 hours post-infection (hpi) and normalized to DMSO controls. […] (G) Target overlap analysis of four MMP-9-targeting inhibitors. (H) Viral titers in supernatants of HEp-2 cells transfected with MMP-specific siRNAs (24 h) followed by RSV A2 infection (MOI = 1, 72 h). mean ± SD, n = 3. The results are representatively shown with three random experiments. The error bars indicate the mean ± SD of three technical replicates (n = 3). Statistical significance was determined by one-way ANOVA with Dunnett’s post hoc test: *P < 0.05, ***P < 0.001; ns, not significant.
104 High-throughput antiviral screening
105 The L1100 protease inhibitor library (246 compounds; L1100, TargetMol) was
106 screened against RSV A2 in HEp -2 cells. Compounds (10 mM DMSO stocks) were
107 robotically dispensed 1 h pre -infection at final concentrations of 1, 5, 10 μM.
108 Infection rates (72 hpi) were normalized to PC786 (1 μM; positive control; HY -
as §12, §2, §3, §4, §5, §6, §7, §8, §9, §10, §11

[6] = biological target: RSV F protein (DS-Cav1); experiment: Biolayer interferometry, TGM2 binding to RSV F protein (DS-Cav1); design: species or system Respiratory syncytial virus; conditions: BLI, biotinylated DS-Cav1 on SA biosensors
Method: Figure 7. MMP-9-mediated TGM2 cleavage potentiates RSV–host interaction. (A) Cytotoxicity profiling. Dose-response curves of TGM2 inhibitors (ZED-1227, Cystamine, Bacitracin, E64FC26, ML359) in HEp-2 cells (72 h treatment). Viability was assessed by CellTiter-Glo assay. Data normalized to untreated controls. mean ± SD, n = 3. (B) Antiviral efficacy. Viral inhibition (FFA) in RSV A2-infected HEp-2 cells treated with TGM2 inhibitors at threefold dilution gradients: ZED-1227 (60–10 µmol/L), Cystamine (200–22.2 µmol/L), Bacitracin (500–50 µmol/L), E64FC26 (0.2–0.05 µmol/L), and ML359 (10–1.1 µmol/L). DMSO as vehicle control. mean ± SD, n = 3. (C) TGM2–F protein interaction. […] BLI quantification of TGM2–DS-Cav1 (RSV F prefusion conformation) interaction. […] MMP-9-cleaved TGM2 (TGM2-44) enhances protein disulfide isomerase (PDI) activity was measured using reduced DS-Cav1. mean ± SD, n = 3. […] Syncytia area quantification in TGM2 truncation-expressing cells (ImageJ software). mean ± SD, n = 3. […] Fluorescence intensity quantification of RSV F in (J) (ImageJ software). mean ± SD, n = 3. […] RSV F expression levels in (L) were quantified by ImageJ software. mean ± SD, n = 3. […]
271 TGM2) were quantified using a Sartorius Octet R4 system. […]
275 equilibration. MMP-9 (MCE) binding was assessed across two concentration ranges: […]
281 (Sartorius) at 20 µg/mL. TGM2 binding was evaluated across 0 –100 µM (7 […]

[7] = system: HEp-2 cells; experiment: Cell viability assay (CellTiter-Glo) in HEp-2 cells; assay type: cell-based
Method: Figure 7. MMP-9-mediated TGM2 cleavage potentiates RSV–host interaction. (A) Cytotoxicity profiling. Dose-response curves of TGM2 inhibitors (ZED-1227, Cystamine, Bacitracin, E64FC26, ML359) in HEp-2 cells (72 h treatment). Viability was assessed by CellTiter-Glo assay. Data normalized to untreated controls. mean ± SD, n = 3. (B) Antiviral efficacy. Viral inhibition (FFA) in RSV A2-infected HEp-2 cells treated with TGM2 inhibitors at threefold dilution gradients: ZED-1227 (60–10 µmol/L), Cystamine (200–22.2 µmol/L), Bacitracin (500–50 µmol/L), E64FC26 (0.2–0.05 µmol/L), and ML359 (10–1.1 µmol/L). DMSO as vehicle control. mean ± SD, n = 3. (C) TGM2–F protein interaction. Co-IP analysis in HEK293T cells co-expressing TGM2 and RSV F (48 h). Immunoblots were probed with anti-TGM2, anti-F, or IgG control. Blots represent three independent experiments. (D) Binding kinetics. BLI quantification of TGM2–DS-Cav1 (RSV F prefusion conformation) interaction. The results represent three biological replicates. (E) Ternary complex formation. Co-IP of MMP-9-TGM2-F complex in HEK293T cells (48 h). GAPDH as loading control. Below the asterisk represents the objective band. Blots represent three independent experiments. (F) Impairing MMP-9/TGM2/RSV-F complex inhibits RSV infection. […] (G) Proteolytic enhancement. MMP-9-cleaved TGM2 (TGM2-44) enhances protein disulfide isomerase (PDI) activity was measured using reduced DS-Cav1. mean ± SD, n = 3. (H) Truncation functional analysis. Viral titers (FFA) in HEp-2 cells expressing MMP-9, TGM2, or cleavage fragments (TGM2-44/41) post RSV infection (MOI = 1, 72 hpi). mean ± SD, n = 3. (I) Syncytium rescue. Syncytia area quantification in TGM2 truncation-expressing cells (ImageJ software). mean ± SD, n = 3. (J) Subcellular redistribution. Confocal microscopy of HEp-2 cells co-expressing TGM2 truncations (HA/FLAG-tagged) and RSV F (72 hpi). Scale bar: 10 µm. Images represent three biological replicates. (K) F protein expression. Fluorescence intensity quantification of RSV F in (J) (ImageJ software). mean ± SD, n = 3. (L) Fusion competence assay. Syncytium formation in HEK293T cells co-expressing TGM2 truncations and RSV F/F-C37S/C69S mutants (48 h). Scale bar: 10 µm. Images represent three biological replicates. (M) Mutant validation. RSV F expression levels in (L) were quantified by ImageJ software. mean ± SD, n = 3. The results are representatively shown with three random experiments. The error bars indicate the mean ± SD of three technical replicates (n = 3). […]
(B-C) Cytotoxicity profiles in HEp-2 (B) and HBEC (C) cells. […] Viability was assessed using the CellTiter-Glo assay (G7570, Promega). […]
95 Cell viability was evaluated using a CellTiter -Glo® Luminescent Cell Viability Assay 96 kit (G7571, Promega) according to the manufacturer’s instructions. […]

[8] = system: RSV A2; experiment: Viral inhibition (FFA) in RSV A2-infected HEp-2 cells treated with TGM2 inhibitors; assay type: cell-based, Respiratory syncytial virus; conditions: HEp-2, RSV A2; ZED-1227 60–10, Cystamine 200–22.2, Bacitracin 500–50, E64FC26 0.2–0.05, ML359 10–1.1 µmol/L
Method: Figure 7. MMP-9-mediated TGM2 cleavage potentiates RSV–host interaction. (A) Cytotoxicity profiling. Dose-response curves of TGM2 inhibitors (ZED-1227, Cystamine, Bacitracin, E64FC26, ML359) in HEp-2 cells (72 h treatment). Viability was assessed by CellTiter-Glo assay. Data normalized to untreated controls. mean ± SD, n = 3. (B) Antiviral efficacy. Viral inhibition (FFA) in RSV A2-infected HEp-2 cells treated with TGM2 inhibitors at threefold dilution gradients: ZED-1227 (60–10 µmol/L), Cystamine (200–22.2 µmol/L), Bacitracin (500–50 µmol/L), E64FC26 (0.2–0.05 µmol/L), and ML359 (10–1.1 µmol/L). DMSO as vehicle control. mean ± SD, n = 3. (C) TGM2–F protein interaction. Co-IP analysis in HEK293T cells co-expressing TGM2 and RSV F (48 h). Immunoblots were probed with anti-TGM2, anti-F, or IgG control. Blots represent three independent experiments. (D) Binding kinetics. BLI quantification of TGM2–DS-Cav1 (RSV F prefusion conformation) interaction. The results represent three biological replicates. (E) Ternary complex formation. Co-IP of MMP-9-TGM2-F complex in HEK293T cells (48 h). GAPDH as loading control. Below the asterisk represents the objective band. Blots represent three independent experiments. (F) Impairing MMP-9/TGM2/RSV-F complex inhibits RSV infection. […] (G) Proteolytic enhancement. MMP-9-cleaved TGM2 (TGM2-44) enhances protein disulfide isomerase (PDI) activity was measured using reduced DS-Cav1. mean ± SD, n = 3. (H) Truncation functional analysis. Viral titers (FFA) in HEp-2 cells expressing MMP-9, TGM2, or cleavage fragments (TGM2-44/41) post RSV infection (MOI = 1, 72 hpi). mean ± SD, n = 3. (I) Syncytium rescue. Syncytia area quantification in TGM2 truncation-expressing cells (ImageJ software). mean ± SD, n = 3. (J) Subcellular redistribution. Confocal microscopy of HEp-2 cells co-expressing TGM2 truncations (HA/FLAG-tagged) and RSV F (72 hpi). Scale bar: 10 µm. Images represent three biological replicates. (K) F protein expression. Fluorescence intensity quantification of RSV F in (J) (ImageJ software). mean ± SD, n = 3. (L) Fusion competence assay. Syncytium formation in HEK293T cells co-expressing TGM2 truncations and RSV F/F-C37S/C69S mutants (48 h). Scale bar: 10 µm. Images represent three biological replicates. (M) Mutant validation. RSV F expression levels in (L) were quantified by ImageJ software. mean ± SD, n = 3. The results are representatively shown with three random experiments. The error bars indicate the mean ± SD of three technical replicates (n = 3). Statistical analysis: one-way ANOVA with Dunnett’s post hoc test (B, F, G, H, I, K, M); unpaired two-tailed Student’s t-test (F, H, I, K, M). *P < 0.05, **P < 0.01, ***P < 0.001; ns, not significant.

Row | Compound | pEC50 [1] | pEC50 [2] | pEC50 [3] | pEC50 [4] | inhibition of RSV infection in HEp-2 cells [5] | pKd [6] | CC50 [7] [nM] | inhibition of RSV replication (antiviral efficacy) [8]
1 | C[C@H]1c2cccc(O)c2C(=O)C2=C(O)[C@]3(O)C(=O)C(C(N)=O)=C(O)[C@@H](N(C)C)[C@@H]3[C@@H](O)[C@@H]21 [Doxycycline] | 6.07 | 6.14 | 5.89 | 6.09 | significant dose-dependent inhibition | – | – | –
2 | TGM2: recombinant transglutaminase 2 protein used in BLI | – | – | – | – | – | 5.20 | – | –
3 | CCCCCCCC/C=C1\C=C(C(F)(F)F)c2cc(O)c(O)cc21 [E64FC26] | – | – | – | – | – | – | 800 | strong antiviral efficacy
4 | Cc1cnc(N2CC3(CCOCC3)C2)c(C(=O)Nc2ccc(C(=O)N3CCc4cc(C(=O)Nc5c(C)cccc5F)sc4-c4ccccc43)cc2)c1 [PC786] | 8.59 | 7.48 | 7.34 | 7.33 | – | – | – | –
